Legend:
Test in all cases: relative viability (nuclei count vs DMSO), 5 days (fraction); higher = more cells survive
[1] = test system: 201T
In short: (§1)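 Lung cancer cell lines were pin-tool dosed in 1536-well plates on the day after seeding, with either a lone drug or a fixed anchor-drug dose plus five library-drug doses (not always all listed) in √10 steps. Nuclei were counted on 4× images after 5 days. Relative viability is the ratio of treated-well to vehicle-well nuclei counts, with each value a median of duplicate plates.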

[2] = test system: A-427
In short: as §1

[3] = test system: BEN
In short: as §1

[4] = test system: COR-L23
In short: as §1

[5] = test system: EKVX
In short: as §1

[6] = test system: HARA
In short: as §1

[7] = test system: HCC-15
In short: as §1

[8] = test system: HCC-44
In short: as §1

[9] = test system: HCC-827
In short: as §1

[10] = test system: NCI-H1437
In short: as §1

[11] = test system: NCI-H1650
In short: as §1

[12] = test system: NCI-H1666
In short: as §1

[13] = test system: NCI-H1792
In short: as §1

[14] = test system: NCI-H1975
In short: as §1

[15] = test system: NCI-H23
In short: as §1

[16] = test system: NCI-H441
In short: as §1

[17] = test system: NCI-H596
In short: as §1

[18] = test system: NCI-H650
In short: as §1

[19] = test system: NCI-H838
In short: as §1

O=c1cc(N2CCOCC2)oc2c(-c3cccc4c3sc3ccccc34)cccc12 + CC(C)C[C@H](NC(=O)[C@H](Cc1ccccc1)NC(=O)c1cnccn1)B(O)O [Bortezomib] (partner 0.002 µM)
relative viability ([1]; first compound 0.01 µM): 1.07
relative viability ([1]; first compound 0.03162 µM): 1.09
relative viability ([1]; first compound 0.1 µM): 0.957
relative viability ([1]; first compound 0.3162 µM): 1.08
relative viability ([1]; first compound 1 µM): 1.1
relative viability ([2]; first compound 0.01 µM): 0.991
relative viability ([2]; first compound 0.03162 µM): 1.04
relative viability ([2]; first compound 0.1 µM): 1.03
relative viability ([2]; first compound 0.3162 µM): 0.871
relative viability ([2]; first compound 1 µM): 1.03
relative viability ([3]; first compound 0.01 µM): 0.867
relative viability ([3]; first compound 0.03162 µM): 0.949
relative viability ([3]; first compound 0.1 µM): 0.673
relative viability ([3]; first compound 0.3162 µM): 0.793
relative viability ([3]; first compound 1 µM): 0.712
relative viability ([4]; first compound 0.01 µM): 1.03
relative viability ([4]; first compound 0.03162 µM): 1
relative viability ([4]; first compound 0.1 µM): 1.09
relative viability ([4]; first compound 0.3162 µM): 0.904
relative viability ([4]; first compound 1 µM): 1.03
relative viability ([5]; first compound 0.01 µM): 1.03
relative viability ([5]; first compound 0.03162 µM): 1.09
relative viability ([5]; first compound 0.1 µM): 1.02
relative viability ([5]; first compound 0.3162 µM): 1.11
relative viability ([5]; first compound 1 µM): 1.05
relative viability ([6]; first compound 0.01 µM): 1.16
relative viability ([6]; first compound 0.03162 µM): 1.17
relative viability ([6]; first compound 0.1 µM): 1.19
relative viability ([6]; first compound 0.3162 µM): 1.1
relative viability ([6]; first compound 1 µM): 1.1
relative viability ([7]; first compound 0.01 µM): 0.948
relative viability ([7]; first compound 0.03162 µM): 1.06
relative viability ([7]; first compound 0.1 µM): 1.12
relative viability ([7]; first compound 0.3162 µM): 0.948
relative viability ([7]; first compound 1 µM): 1.04
relative viability ([8]; first compound 0.01 µM): 0.889
relative viability ([8]; first compound 0.03162 µM): 0.875
relative viability ([8]; first compound 0.1 µM): 0.906
relative viability ([8]; first compound 0.3162 µM): 0.881
relative viability ([8]; first compound 1 µM): 0.896
relative viability ([9]; first compound 0.01 µM): 1.02
relative viability ([9]; first compound 0.03162 µM): 0.976
relative viability ([9]; first compound 0.1 µM): 1.04
relative viability ([9]; first compound 0.3162 µM): 1.06
relative viability ([9]; first compound 1 µM): 1.02
relative viability ([10]; first compound 0.01 µM): 0.493
relative viability ([10]; first compound 0.03162 µM): 0.515
relative viability ([10]; first compound 0.1 µM): 0.477
relative viability ([10]; first compound 0.3162 µM): 0.527
relative viability ([10]; first compound 1 µM): 0.57
relative viability ([11]; first compound 0.03162 µM): 0.243
relative viability ([11]; first compound 0.1 µM): 0.193
relative viability ([11]; first compound 0.3162 µM): 0.219
relative viability ([11]; first compound 1 µM): 0.175
relative viability ([12]; first compound 0.01 µM): 0.678
relative viability ([12]; first compound 0.03162 µM): 0.804
relative viability ([12]; first compound 0.1 µM): 0.909
relative viability ([12]; first compound 0.3162 µM): 0.703
relative viability ([12]; first compound 1 µM): 0.751
relative viability ([13]; first compound 0.01 µM): 0.965
relative viability ([13]; first compound 0.03162 µM): 0.912
relative viability ([13]; first compound 0.1 µM): 0.965
relative viability ([13]; first compound 0.3162 µM): 0.938
relative viability ([13]; first compound 1 µM): 0.955
relative viability ([14]; first compound 0.01 µM): 0.384
relative viability ([14]; first compound 0.03162 µM): 0.387
relative viability ([14]; first compound 0.1 µM): 0.479
relative viability ([14]; first compound 0.3162 µM): 0.349
relative viability ([14]; first compound 1 µM): 0.372
relative viability ([15]; first compound 0.01 µM): 1.13
relative viability ([15]; first compound 0.03162 µM): 1.08
relative viability ([15]; first compound 0.3162 µM): 1.01
relative viability ([15]; first compound 1 µM): 0.946
relative viability ([16]; first compound 0.01 µM): 0.443
relative viability ([16]; first compound 0.03162 µM): 0.565
relative viability ([16]; first compound 0.1 µM): 0.487
relative viability ([16]; first compound 0.3162 µM): 0.301
relative viability ([16]; first compound 1 µM): 0.684
relative viability ([17]; first compound 0.01 µM): 0.897
relative viability ([17]; first compound 0.03162 µM): 1.07
relative viability ([17]; first compound 0.1 µM): 1.37
relative viability ([17]; first compound 0.3162 µM): 1.06
relative viability ([17]; first compound 1 µM): 1.08
relative viability ([18]; first compound 0.01 µM): 0.845
relative viability ([18]; first compound 0.03162 µM): 0.837
relative viability ([18]; first compound 0.3162 µM): 1.12
relative viability ([18]; first compound 1 µM): 0.632
relative viability ([19]; first compound 0.01 µM): 0.779
relative viability ([19]; first compound 0.03162 µM): 0.673
relative viability ([19]; first compound 0.1 µM): 0.805
relative viability ([19]; first compound 0.3162 µM): 0.813
relative viability ([19]; first compound 1 µM): 0.908

Source: the supplement of paper PMC10307832
